The results in this text go back to patent publication US9370555B2, “Surfactant protein D for the treatment of disorders associated with lung injury” (priority 1998, dated 2016).

The test system of one assay is MMP-2 and 9. As to the kind of experiment: Gelatin zymography of conditioned media from alveolar macrophages of SP-D(−/−) mice. In kind it is cell-based, mouse. The settings on record: for gelatinolytic activity of MMP-2 and 9 in conditioned media: AMs from SP-D(−/−) mice, 20 mM NAC, 200 μM PDTC, 1 μM DPI, 1 mM apocynin, 10 μM SN-50, 24 h. As to the method:
Isolation of alveolar macrophages (AMs) from bronchoalveolar lavage (BAL) was performed by instilling ten, 1 ml aliquots of phosphate-buffered saline (PBS). BAL fluid from several animals was pooled to provide sufficient numbers of macrophages for each analysis. The lavage was centrifuged at 1200 rpm at 7 min and pelleted cells were resuspended in serum-free RPMI medium containing 1% of Nutriodoma (Boehringer Mannheim, Indianapolis, Ind.), and counted with a hemocytometer. More than 90% of BAL cells were AM in both WT and SP-D (−/−) mice. For some experiments, alveolar macrophages (AMs) were isolated by differential attachment to tissue culture flasks at 37° C. Non-adherent cells were then removed, and fresh, serum-free medium was added. The adherent AMs were maintained in a humidified atmosphere containing 5% CO2 and 95% air until the end of the experiments. To determine whether increased oxidant production mediated the expression of MMPs by AMs from SP-D (−/−) mice, the cells were treated with N-acetylcysteine (NAC) and pyrrolidine dithiocarbamate (PDTC), both antioxidant reagents as follows: AMs from SP-D (−/−) mice were pooled and placed in culture at a concentration of 5×10^5 cells per well in serum-free RPMI medium. The AMs were treated with 20 mM N-acetylcysteine (NAC), 200 μM pyrolidine dithiocarbamate (PDTC), 1 μM diphenylene iodonium chloride (DPI) (Sigma, St. Louis, Mo.), or 1 mM apocynin (Aldrich, Milwaukee, Wis.). Cells were also incubated with a 10 μM SN-50 (Calbiochem, LaJolla, Calif.), an inhibitor of NF-κB nuclear import. After 6 h incubation, supernatants were removed and the cells were washed and incubated with fresh media including the reagents for 24 h. […] RAW 264.7 murine macrophage cell line was obtained from the American Type Culture Collection (Rockville, Md.) and maintained in DMEM containing 10% FBS, 10 mM HEPES, 50 U/ml penicillin and 50 μg/mL streptomycin. 2×10^5 cells in 24-well plates were incubated with or without 10 μM menadione (Sigma, St. Louis, Mo.) for 24 hours. Gelatinolytic activity in the culture media of untreated and treated cells was analyzed by SDS-PAGE zymography (FIGS. 29A-29D). Gelatin Zymography was performed as follows: MMP activities were measured in macrophage-conditioned media. Proteinases in the conditioned media were concentrated by incubation with gelatin-agarose beads (Amersham Pharmacia, Arlington Heights, Ill.) for 2 h at 4° C. The beads were pelleted and washed, and proteinases eluted by incubation in sample buffer for 45 min at 37° C. The samples then were electrophoresed into 10% Zymogram gelatin gels (NOVEX, San Diego, Calif.). […] Gels were stained with 0.5% (wt/vol) Coomassie blue in 50% methanol and 10% acetic acid for 30 min, then destained. MMPs were detected as clear bands against a blue background.

Another assay concerns AP-1. As to the kind of experiment: EMSA of nuclear extracts from AMs of SP-D(−/−) mice, AP-1 oligonucleotide. In kind it is cell-based, mouse. The settings on record: AMs isolated from SP-D(−/−) mice. As to the method: (§1) To assess whether apocyanin affected binding of nuclear extracts, the following protocol was used: Nuclear extracts were obtained using a modified method previously described (Sever Chroneos, et al. Am. J. Physiol. 277:L79). Lavaged cells were lysed with Buffer A (10 mM Hepes, 10 mM KCl, 0.1 mM EDTA, 1.5 mM MgCl2, 0.2% Nonidet P-40 (NP-40), 1 mM DTT, 0.5 mM PMSF), followed by vortexing to shear the cytoplasmic membranes. Nuclei were pelleted by centrifugation at 3000 rpm for 3 min at 4° C. in a microcentrifuge. Nuclear proteins were extracted with high-salt buffer C (20 mM Hepes, 25% glycerol, 1.5 mM MgCl2, 0.1 mM EDTA, 1.5 mM MgCl2, 420 mM NaCl, 1 mM DTT, 0.5 mM PMSF) and stored at −80° C. Total nuclear protein concentrations were determined by bicinchoninic acid (BCA) method.
In general terms: A gel shift assay detects complexes by their altered migration in electrophoresis.

The test system of another assay is NF-κB. The experiment in a line: EMSA of nuclear extracts from AMs of SP-D(−/−) mice, NF-κB oligonucleotide. In kind it is cell-based, mouse. The settings on record: AMs isolated from SP-D(−/−) mice. As to the method:
as §1

A further assay has as its system MMP-2 and 9 mRNA. As to the kind of experiment: RT-PCR of MMP-2 and 9 mRNA in cultured AMs from SP-D(−/−) mice. The settings on record: 1 mM apocynin. Format: cell-based, mouse.
In assay [1] the test system is RAW 264.7 murine macrophage cell line. The experiment in a line: MMP-9 production by RAW 264.7 macrophages (zymography). In kind it is cell-based, mouse. The settings on record: 10 μM, 24 hours.
Description: RAW 264.7 murine macrophage cell line was obtained from the American Type Culture Collection (Rockville, Md.) and maintained in DMEM containing 10% FBS, 10 mM HEPES, 50 U/ml penicillin and 50 μg/mL streptomycin. 2×10^5 cells in 24-well plates were incubated with or without 10 μM menadione (Sigma, St. Louis, Mo.) for 24 hours. To assess whether ROS directly stimulated MMP production, RAW 264.7 macrophages were incubated with 10 μM of menadione, a ROS generator, for 24 hours.
The next assay has as its system SP-D(−/−) mice. The experiment in a line: Treatment of SP-D(−/−) mice with purified mouse SP-D: saturated PC pools. In kind it is in vivo. The settings on record: 2.9 μg intratracheally at 24 hour intervals, 3 to 7 doses.
The test system of assay [2] is influenza A virus A/Phillipines/82 (H3N2) (Phil/82). Format: in vivo. The settings on record: SP-D −/− mice.

Entries after “also recorded” stand apart in the source; their conditions may differ.

For `c1ccc2c(c1)[I+]c1ccccc1-2` [DPI, diphenylene iodonium chloride], the “gelatinolytic activity of MMP-2 and 9 in conditioned media” value with MMP-2 and 9 is given as “markedly suppressed MMP enzymatic activity; also recorded: markedly decreased MMP activity”.
Same read-out and setting: as for `CC(=O)N[C@@H](CS)C(=O)O` [NAC, N-acetylcysteine], the entry is “reduced gelatinolytic activity; also recorded: inhibited gelatinolytic activities of MMP-2 and 9”; as for `S=C(S)N1CCCC1` [PDTC, pyrrolidine dithiocarbamate], “reduced gelatinolytic activity; also recorded: inhibited gelatinolytic activities of MMP-2 and 9”.
Consider `COc1cc(C(C)=O)ccc1O` [apocynin], for which, in the assay on AP-1, the “DNA binding activity to an AP-1 oligonucleotide (EMSA)” value is “decreased DNA binding activity”. In addition, the “gelatinolytic activity of MMP-2 and 9 in conditioned media” value with MMP-2 and 9 is listed as “markedly suppressed MMP enzymatic activity; also recorded: markedly decreased MMP activity”. Further, the “binding of nuclear extracts to NF-κB oligonucleotide (EMSA)” value is “reduced DNA binding activity of NF-κB” in the assay with NF-κB and “reduced binding of nuclear extracts” with NF-κB (listed as Apocynin). In addition, the “MMP-2 and 9 mRNA” value in the assay on MMP-2 and 9 mRNA was “reduced MMP-2 and 9 mRNA”.
`CC1=CC(=O)c2ccccc2C1=O` [menadione]: the MMP-9 production result in assay [1] is given as “increased”.

B1: purified mouse SP-D: Surfactant protein D purified from BAL fluid of GMCSF and SP-A double null mutant mice on maltosyl-agarose (protein, UniProt P50404 20-374, looked up)
Pulmonary …: AEMKSLSQRSVPNTCTLVMCSPTENGLPGRDGRDGREGPRGEKGDPGLPGPMGLSGLQGPTGPVGPKGENGSAGEPGPKGERGLSGPPGLPGIPGPAGKEGPSGKQGNIGPQGKPGPKGEAGPKGEVGAPGMQGSTGAKGSTGPKGERGAPGVQGAPGNAGAAGPAGPAGPQGAPGSRGPPGLKGDRGVPGDRGIKGESGLPDSAALRQQMEALKGKLQRLEVAFSHYQKAALFPDGRSVGDKIFRTADSEKPFEDAQEMCKQAGGQLASPRSATENAAIQQLITAHNKAAFLSMTDVGTEGKFTYPTGEPLVYSNWAPGEPNNNGGAENCVEIFTNGQWNDKACGEQRLVICEF
For the molecule B1, the “MMP production by AMs” value with MMP-2 and 9 (mouse SP-D 5 μg/ml in vitro) is on record as “did not reduce MMP production”. Also, the “Saturated PC levels in alveolar lavage and total lung lavage (lipid accumulation)” value with SP-D(−/−) mice is “partial correction of lipid accumulation; also recorded: decreased both alveolar and saturated PC pools”.

B2: recombinant SP-D: Recombinant human SP-D dodecamers secreted by CHO-K1 cells transfected with full-length human cDNA (protein)
chain: B1 Pulmonary …
Regarding B2, the “IAV (Phil/82) titer in lung” value in assay [2] (5 μg intratracheal co-administration, 3 days after infection, untreated 1.6×10^5±4.0×10^4, mean±SEM) is 7.5×10^4±1.4×10^4 ff/gram lung. The “clearance of IAV from the lung” value in assay [2] (co-administration of recombinant SP-D) is recorded as “normalized viral clearance; also recorded: enhanced clearance”.
